{
  "source": "patent US9573920B2",
  "about": "“Compound, medicine, anti-inflammatory, cosmetic, food and drink, and method for producing compound” (Amino Up Chemical Co., Ltd., priority 2013, dated 2017)",
  "key": {"[1]": {"tested_on": "nitrogen monoxide (NO) production due to IL-1β", "assay": "NO production inhibitory action in IL-1β-stimulated rat liver cells (Griess method)", "type": "cell-based", "conditions": "IL-1β 1 nM, 8 hours", "method": "Liver cells were isolated from male Wistar rats (200 to 250 g, Charles River) by a collagenase perfusion method (collagenase: Wako Pure Chemicals). The isolated liver cells were suspended in a medium at 6×10^5 cells/mL, seeded in 35 mm plastic dishes (Falcon Plastic) (2 mL/dish), and cultured in an incubator with 5% CO2 at 37° C. Williams' Medium E (WE) containing 10% newborn calf serum, HEPES (5 mM), penicillin (100 U/mL), streptomycin (0.1 mg/mL), dexamethasone (10 nM), and insulin (10 nM) was used as the medium. After 5 hours, the medium was replaced with fresh WE free of any serum and hormone, and the cells were cultured overnight until before use of the cells for an experiment.\nOn day 1 after the start of the culture, cells were subjected to replacement with fresh WE free of any serum and hormone, and recombinant rat IL-1β (purity of 97% or more) (PeproTech, Rocky Hill, N.J., USA), and Pa5 extracted with methanol in Example 1 or negletein in the comparative example were added to the medium. In each medium, the concentration of IL-1β was 1 nM, the concentrations of Pa5 were 5, 10, and 20 μM, and the concentrations of negletein were 10, 20, and 40 μM (FIG. 1). The amount of NO in each medium was measured 8 hours after the addition of IL-1β, and Pa5 or negletein by a Griess method (Green L C et al, Anal Biochem 1982; 126: 131-138). More specifically, the amount of nitrite (stable metabolite of NO) in each medium was measured.\nLiver cells originated from rats were cultured in like manner with Example 4. On day 1 after the start of the culture, the cells were subjected to replacement with fresh WE free of any serum and hormone, and recombinant rat IL-1β (similar to that in Example 4) and Pa9 extracted with methanol in Example 3 were added to the medium. In each medium, the concentration of IL-1β was 1 nM, and the concentrations of Pa9 were 10 μM, 50 μM, and 100 μM (FIG. 5). The amount of NO in each medium was measured 8 hours after the addition of IL-1β and Pa9 in like manner with Example 4."}, "rat liver cells": {"tested_on": "rat liver cells", "assay": "LDH activity of medium (cytotoxicity)", "type": "cell-based", "conditions": "IL-1β 1 nM plus Pa5, 8 hours", "method": "Further, lactate dehydrogenase (LDH) activity was measured to investigate the cytotoxicity of Pa5. The lactate dehydrogenase (LDH) activity of each medium was measured using LDH Cytotoxicity Detection Kits (Takara Bio Inc.). LDH is an enzyme existing in a cell, and therefore migrates into a medium due to cell damage. Each medium was collected 8 hours after the addition of IL-1β, and Pa5 or negletein, and was used for measuring the activity. Actually, each sample (50 μl of medium) and Solution C (50 μl) in the kit were mixed and left standing at room temperature for 30 minutes, 1 M hydrochloric acid (25 μl) was added to stop the reaction, and the absorbance of the resultant at 490 nm was measured and compared with a calibration curve using LDH of known concentration to determine the LDH activity. The LDH activity of the whole cells on one dish (that is, whole-cell extract) was considered to be a positive control (positive control in FIG. 3), and was regarded as 100%. The medium was removed from each dish containing the liver cells, the cells were washed three times with phosphate buffered saline (PBS), then ultrasonically broken, and centrifuged at 10000×g for 3 minutes to then obtain a supernatant, which was used as a whole-cell extract, and the LDH activity of the cells was measured."}, "CINC-2α/β": {"tested_on": "CINC-2α/β", "assay": "cytokine/chemokine array (in vitro), CINC-2α/β", "type": "cell-based, rat", "conditions": "(+) IL-1β 1 nM, Pa5 20 μM", "method": "(§1) In like manner with Example 4, liver cells were isolated from male Wistar rats by a collagenase perfusion method. The isolated liver cells were suspended in a medium (similar to that in Example 4) at 1.2×10^6 cells/mL, seeded in 35 mm plastic dishes (similar to those in Example 4) (1 mL/dish), and cultured in an incubator with 5% CO2 at 37° C. After 5 hours, the medium was replaced with fresh WE free of any serum and hormone, and the cells were cultured overnight until before use of the cells for an experiment.\n(§2) On day 1 after the start of the culture, cells were subjected to replacement with fresh WE free of any serum and hormone, and IL-1β (similar to that in Example 4), and Pa5 extracted with methanol in Example 1 or Pa5′ extracted with methanol in Example 2 were added to the medium. The concentrations of IL-1β, Pa5, and Pa5′ in each medium were 1 nM, 20 μM, and 100 μM, respectively (Table 1). Then, the cells were cultured at 37° C., and the medium was collected 3 hours after the start of the culture. The collected medium was centrifuged for 1 minute at 5000 rpm to remove cellular debris, and the supernatant was used in an assay. The supernatant was preserved at −80° C. until performing the assay.\n(§3) The productions of the various inflammatory cytokines/chemokines were measured according to an accompanying protocol using Rat Cytokine Antibody Array (R&D Systems) (http://www.rndsystems.com/product_detail_objectname_ratcytokinearray.aspx) capable of detecting 29 kinds of cytokines/chemokines in Proteome Profiler® Antibody Array. In the measurement, 1 mL of the supernatant of the medium obtained as described above was used.\n(§4) In the above-described method, the 29 kinds of the cytokines/chemokines can be detected at once, and chemiluminescence on the filter of Proteome Profiler Antibody Array increases in proportion to the amount of each cytokine/chemokine. Thus, the chemiluminescence on the filter of Proteome Profiler Antibody Array was detected with LAS3000mini (GE Healthcare), subjected to densitometry analysis, and converted into a numeric value. The densitometry analysis was carried out with reference to http://www.hm6.aitai.ne.jp/˜maxcat/imageJ/technique.html#gels (the heading of “Analyzing Electrophoretic Gels”) using ImageJ software."}, "CINC-3": {"tested_on": "CINC-3", "assay": "cytokine/chemokine array (in vitro), CINC-3", "type": "cell-based, rat", "conditions": "(+) IL-1β 1 nM, Pa5 20 μM", "method": "as §1, §2, §3, §4"}, "Fractalkine (CX3CL1)": {"tested_on": "Fractalkine (CX3CL1)", "assay": "cytokine/chemokine array (in vitro), Fractalkine", "type": "cell-based, rat", "conditions": "(+) IL-1β 1 nM, Pa5 20 μM", "method": "as §1, §2, §3, §4"}, "sICAM-1 (CD54)": {"tested_on": "sICAM-1 (CD54)", "assay": "cytokine/chemokine array (in vitro), sICAM-1", "type": "cell-based, rat", "conditions": "(+) IL-1β 1 nM, Pa5 20 μM", "method": "as §1, §2, §3, §4"}, "MIG (CXCL9)": {"tested_on": "MIG (CXCL9)", "assay": "cytokine/chemokine array (in vitro), MIG", "type": "cell-based, rat", "conditions": "(+) IL-1β 1 nM, Pa5 20 μM", "method": "as §1, §2, §3, §4"}, "[2]": {"tested_on": "VEGF (VEGF-A/Vasculotropin)", "assay": "cytokine/chemokine array (in vitro), VEGF", "type": "cell-based, rat", "conditions": "(+) IL-1β 1 nM, Pa5 20 μM", "method": "as §1, §2, §3, §4"}, "IL-17": {"tested_on": "IL-17", "assay": "cytokine/chemokine array (in vitro), IL-17", "type": "cell-based, rat", "conditions": "(+) IL-1β 1 nM, Pa5 20 μM", "method": "as §1, §2, §3, §4"}, "Thymus Chemokine (CXCL7)": {"tested_on": "Thymus Chemokine (CXCL7)", "assay": "cytokine/chemokine array (in vitro), Thymus Chemokine", "type": "cell-based, rat", "conditions": "(+) IL-1β 1 nM, Pa5 20 μM", "method": "as §1, §2, §3, §4"}, "[3]": {"tested_on": "various inflammatory cytokines/chemokines", "assay": "cytokine/chemokine arrays (in vitro), overall", "type": "cell-based", "conditions": "rat liver cells, IL-1β 1 nM, Pa5 20 μM, 3 hours", "method": "as §1, with “experiment. […]” for “experiment.”\nas §3, with “In the measurement, 1 mL of the supernatant of the medium obtained as described above was used.” left out\nIn the above-described method, the 29 kinds of the cytokines/chemokines can be detected at once, and chemiluminescence on the filter of Proteome Profiler Antibody Array increases in proportion to the amount of each cytokine/chemokine. Thus, the chemiluminescence on the filter of Proteome Profiler Antibody Array was detected with LAS3000mini (GE Healthcare), subjected to densitometry analysis, and converted into a numeric value. […]"}},
  "data": [
    {"smiles": "COc1cc2c(c(O)c1OC)OC(c1ccccc1)CC2=O", "note": "(centres unmarked) [Pa5, 8-hydroxy-6,7-dimethoxyflavanone]", "values": [
      {"measurement": "degree of NO production inhibitory action, comparison at the same addition concentration", "setting": "[1]; 10 μM", "value": "higher than that of negletein"},
      {"measurement": "IC50", "setting": "[1]; nitrite by Griess method, read-out: IC50 value (drug concentration at NO production of 50%)", "value": 9, "unit": "µM"},
      {"measurement": "production of NO due to IL-1β", "setting": "[1]; Pa5 5, 10, 20 μM", "value": "dose-dependently inhibited"},
      {"measurement": "LDH activity of medium", "setting": "rat liver cells", "value": "equivalent to that in the case of adding IL-1β"},
      {"measurement": "cytotoxicity (from LDH activity)", "setting": "rat liver cells", "value": "no cytotoxicity"},
      {"measurement": "CINC-2α/β (%)", "setting": "CINC-2α/β; 3 hours, (+) alone = 100.0", "value": 2.8, "unit": "%"},
      {"measurement": "CINC-2α/β chemiluminescence densitometry, Average", "setting": "CINC-2α/β; medium at 3 hours", "value": 170.2},
      {"measurement": "CINC-2α/β chemiluminescence densitometry, first value", "setting": "CINC-2α/β; medium at 3 hours", "value": 209.7},
      {"measurement": "CINC-2α/β chemiluminescence densitometry, second value", "setting": "CINC-2α/β; medium at 3 hours", "value": 130.6},
      {"measurement": "CINC-3 (%)", "setting": "CINC-3; 3 hours, (+) alone = 100.0", "value": 0.6, "unit": "%"},
      {"measurement": "CINC-3 chemiluminescence densitometry, Average", "setting": "CINC-3; medium at 3 hours", "value": 17.1},
      {"measurement": "CINC-3 chemiluminescence densitometry, first value", "setting": "CINC-3; medium at 3 hours", "value": 16.1},
      {"measurement": "CINC-3 chemiluminescence densitometry, second value", "setting": "CINC-3; medium at 3 hours", "value": 18.1},
      {"measurement": "Fractakine (CX3CL1) (%)", "setting": "Fractalkine (CX3CL1); 3 hours, (+) alone = 100.0", "value": 0.0, "unit": "%"},
      {"measurement": "Fractakine (CX3CL1) chemiluminescence densitometry, Average", "setting": "Fractalkine (CX3CL1); medium at 3 hours", "value": 0.0},
      {"measurement": "Fractakine (CX3CL1) chemiluminescence densitometry, first value", "setting": "Fractalkine (CX3CL1); medium at 3 hours", "value": 0.0},
      {"measurement": "Fractakine (CX3CL1) chemiluminescence densitometry, second value", "setting": "Fractalkine (CX3CL1); medium at 3 hours", "value": 0.0},
      {"measurement": "sICAM-1 (CD54) (%)", "setting": "sICAM-1 (CD54); 3 hours, (+) alone = 100.0", "value": 0.0, "unit": "%"},
      {"measurement": "sICAM-1 (CD54) chemiluminescence densitometry, Average", "setting": "sICAM-1 (CD54); medium at 3 hours", "value": 0.0},
      {"measurement": "sICAM-1 (CD54) chemiluminescence densitometry, first value", "setting": "sICAM-1 (CD54); medium at 3 hours", "value": 0.0},
      {"measurement": "sICAM-1 (CD54) chemiluminescence densitometry, second value", "setting": "sICAM-1 (CD54); medium at 3 hours", "value": 0.0},
      {"measurement": "MIG (CXCL9) (%)", "setting": "MIG (CXCL9); 3 hours, (+) alone = 100.0", "value": 0.0, "unit": "%"},
      {"measurement": "MIG (CXCL9) chemiluminescence densitometry, Average", "setting": "MIG (CXCL9); medium at 3 hours", "value": 0.0},
      {"measurement": "MIG (CXCL9) chemiluminescence densitometry, first value", "setting": "MIG (CXCL9); medium at 3 hours", "value": 0.0},
      {"measurement": "MIG (CXCL9) chemiluminescence densitometry, second value", "setting": "MIG (CXCL9); medium at 3 hours", "value": 0.0},
      {"measurement": "VEGF (VEGF-A/Vasculotropin) (%)", "setting": "[2]; 3 hours, (+) alone = 100.0", "value": 29.0, "unit": "%"},
      {"measurement": "VEGF (VEGF-A/Vasculotropin) chemiluminescence densitometry, Average", "setting": "[2]; medium at 3 hours", "value": 236.8},
      {"measurement": "VEGF (VEGF-A/Vasculotropin) chemiluminescence densitometry, first value", "setting": "[2]; medium at 3 hours", "value": 241.4},
      {"measurement": "VEGF (VEGF-A/Vasculotropin) chemiluminescence densitometry, second value", "setting": "[2]; medium at 3 hours", "value": 232.3},
      {"measurement": "IL-17 (%)", "setting": "IL-17; 3 hours, (+) alone = 100.0", "value": 0.0, "unit": "%"},
      {"measurement": "IL-17 chemiluminescence densitometry, Average", "setting": "IL-17; medium at 3 hours", "value": 0.0},
      {"measurement": "IL-17 chemiluminescence densitometry, first value", "setting": "IL-17; medium at 3 hours", "value": 0.0},
      {"measurement": "IL-17 chemiluminescence densitometry, second value", "setting": "IL-17; medium at 3 hours", "value": 0.0},
      {"measurement": "Thymus Chemokine (CXCL7) (%)", "setting": "Thymus Chemokine (CXCL7); 3 hours, (+) alone = 100.0", "value": 0.0, "unit": "%"},
      {"measurement": "Thymus Chemokine (CXCL7) chemiluminescence densitometry, Average", "setting": "Thymus Chemokine (CXCL7); medium at 3 hours", "value": 0.0},
      {"measurement": "Thymus Chemokine (CXCL7) chemiluminescence densitometry, first value", "setting": "Thymus Chemokine (CXCL7); medium at 3 hours", "value": 0.0},
      {"measurement": "Thymus Chemokine (CXCL7) chemiluminescence densitometry, second value", "setting": "Thymus Chemokine (CXCL7); medium at 3 hours", "value": 0.0},
      {"measurement": "induction of various cytokines/chemokines", "setting": "[3]", "value": "strongly inhibit"}
    ]}
  ]
}
